Experiment [1] concerns 22Rv1 cells. Put plainly: MTT cell proliferation assay, 7 d, 22Rv1. Type of experiment: cell-based. To be noted: Homo sapiens, 22Rv1, 168 h, 7 d treatment. From the text: (§1) Androgen-dependent (LNCaP), androgen-independent (PC-3) and castration resistant (C4-2B and 22Rv1) human prostate carcinoma cells were procured from American Type Culture Collection, Manassas, VA, USA and maintained in RPMI 1640 media (Gibco-Life Technologies, Grand Island, NY, USA) supplemented with 10% fetal bovine serum and 1% penicillin/streptomycin. […] Immortalized untransformed prostate epithelial cells, PWR1E from American Type Culture Collection were maintained in serum-free Keratinocyte media (Gibco) supplemented with epidermal growth factor and bovine pituitary extract. All cell lines were maintained in a 37 °C/5% CO2 humidified atmosphere.
(§2) Cell proliferation assay was performed as described previously. For cell growth experiment, cells were treated with the NRs for 7 days. MTT assay was performed at the end of the experiment. Calculations of combination indices were done using the Calcusyn program (Biosoft, Cambridge, United Kingdom). For colony formation assay, cells were plated 1000 per well in complete media and allowed to adhere for 24 h. The next day cells were treated with indicated compounds (5 μM). After 24 h compound containing media were removed, and cells were allowed to form colonies in complete media. Approximately 2 weeks later the colonies were fixed, stained with 0.5% crystal violet (sigma) for 30 min and counted manually. Results represent the mean ± standard deviation of three independent experiments.
On the technique in general: Formazan colour is commonly taken as a measure of viable cells.

Experiment [2] has as its system MR49F cells. Put plainly: MTT growth inhibition in Enzalutamide resistant MR49F cells. The format is cell-based, human. To be noted: Homo sapiens, MR49F; read-out: GI50 MR49F (Figure 2C). As for the experimental part: Figure 2 Effect of NRs on PCa cell growth and colony formation (A) Representative photographs of colonies formed in PCa cells at 14th day after initial treatment with specified compounds (5 μmol/L). Colonies were fixed with methanol and stained with crystal violet. (B) Data represents the mean ± S.E from three independent experiments. *, P< 0.05; ♣, P<0.01 compared to vehicle treated control. […] NRs that had promising inhibitory effect on cell proliferation on LNCaP cells were tested for their growth inhibitory effect in MR49F cells in comparison with Casodex and Abiraterone acetate by MTT assay.
as §1, §2

The test system of experiment [3] is Bax, cleaved PARP-1. The experiment is described as follows: Western blot of Bax and cleaved PARP-1 in PCa cells. The format is cell-based, human. The note with it: 20 μM, 24 h, among the lead NRs. Here is the method: Figure 4 Effect of NRs on cell cycle and apoptosis (A) LNCaP cells treated with 5 μM of NRs and other compounds for 24 h were stained with PI and analysed with a FACS calibur flow cytometer. (B) Total cell lysates from PCa cells treated with 20 μM of NRs were separated by SDS-PAGE and probed with cyclin D1 and B antibodies. […] (C) LNCaP cells were treated with indicated compounds (5 μmol/L) for 24 h and apoptosis induction was examined by oligonucleosomal fragmentation. Data are shown relative to vehicle treated control and the bars are means of three replicate determinations plus standard deviations. *, P< 0.01; ♣, P<0.05 compared with vehicle treated control. (D) PCa cells as indicated were seeded in 24 well plate, and treated with 5 μmol/L of NRs the subsequent day. After 24 h the plates were analyzed for apoptotic and viable cells using acridine orange/ethidium bromide staining. (E) Western blot analysis of apoptosis associated Bax and cPARP in PCa cells treated with NRs (20 μmol/L) for 24 h. (F) Apoptosis induction in LNCaP cells treated with 5 μmol/L of VNLG-147 and -152 in the presence or absence of ZVAD (5 μmol/L) was assessed by oligonucleosomal fragmentation after 24 h incubation. *, P< 0.05 compared with vehicle treated control. […]
On the technique in general: Immunoblotting shows a protein as a band on a membrane.

In experiment [4] the test system is LNCaP cells. The experiment is described as follows: MTT cell proliferation assay, 7 d, LNCaP. Type of experiment: cell-based, human. To be noted: Homo sapiens, LNCaP, 168 h, 7 d treatment.
Description: as §1, §2

Experiment [5] has as its system PCa cells. The experiment is described as follows: MTT cell viability in PCa cells (LNCaP, PC-3, C4-2B, 22Rv1). The format is cell-based, human. To be noted: Homo sapiens, range over PCa cell lines. As for the experimental part: as §2
The subject of experiment [6] is C4-2B cells. The experiment is described as follows: MTT cell proliferation assay, 7 d, C4-2B. Type of experiment: cell-based. The note with it: Homo sapiens, 168 h, 7 d treatment.
Description: as §1, §2

In experiment [7] the test system is PC-3 cells. Put plainly: Boyden chamber matrigel invasion assay. To be noted: PC-3, 5 μM, 24 h. Type of experiment: cell-based, human. As for the experimental part:
Figure 5 Anti-migratory and anti-invasive potential of NRs (A) Effect of NRs treatment (5 μmol/L) on PC-3 cell migration was assessed by wound healing assay after 24 h of wound formation. Representative photomicrographs of initial and final wounds are shown at 100x magnification. (B) Effect of NRs on PC-3 cell invasion was evaluated by transwell migration assay. PC-3 cells were seeded on matrigel coated boyden chamber and treated with NRs (5 μmol/L, 24 h). Photographs represent the extent of cell invasion in each of the treated cells. (C) Western blot analysis of the effect of NRs on the expression of cadherins in PC-3 cells. Cells were treated with indicated compound 20 μmol/L for 24 h.
The invasion assay in PC-3 cells was performed using Matrigel (BD Biosciences, Bedford, MA, USA)-coated transwell cell culture chambers (8 μm pore size, EMD Millipore, Temecula, CA, USA) as described previously (43). Briefly, PC-3 cells (5 × 10^4 cells/well) were cultured in the upper chamber of the transwell insert for 24 h in serum-free RPMI-1640 medium. The cells were then treated with 5 μM of indicated compounds for 24 h. RPMI-1640 medium containing 10% FBS was placed in the lower chamber. At the end of incubation, the top surface of the non-migrated cells were scraped gently with cotton swabs and the cells on the lower surface of the membrane (migrated cells) were fixed for 15 min with cold methanol and stained with crystal violet. Cells that had migrated to the bottom of the membrane were visualized and counted using an inverted microscope. For each replicate (n = 3), cells in three randomly selected fields were counted and averaged.

Experiment [8] deals with PC-3 cells. The experiment is described as follows: Wound healing migration assay. The format is cell-based, human. To be noted: 5 μM, 24 h. Here is the method:
Figure 5 Anti-migratory and anti-invasive potential of NRs (A) Effect of NRs treatment (5 μmol/L) on PC-3 cell migration was assessed by wound healing assay after 24 h of wound formation. Representative photomicrographs of initial and final wounds are shown at 100x magnification. (B) Effect of NRs on PC-3 cell invasion was evaluated by transwell migration assay. PC-3 cells were seeded on matrigel coated boyden chamber and treated with NRs (5 μmol/L, 24 h). Photographs represent the extent of cell invasion in each of the treated cells. (C) Western blot analysis of the effect of NRs on the expression of cadherins in PC-3 cells. Cells were treated with indicated compound 20 μmol/L for 24 h. […] For wound healing assay highly metastatic PC-3 cells were plated in a 24 well plate at a seeding density of 5 × 10^5 cells/ well and allowed to form a confluent monolayer for 24 h. Cells were made dormant by pretreating with 0.5 μmol/L mitomycin C for 2 h to ensure that wounds are filled due to cell migration and not by cell proliferation. Subsequently, the monolayer was scratched with a pipette tip, washed with media to remove floating cells, and photographed (time 0 h). Cells were then treated with indicated compounds (5 μM) and the experiment was terminated as soon as wound was completely filled in vehicle treated controls. Cells were then photographed again using Nikon TE2000 microscope at three randomly selected sites per well [43].

In experiment [9] the test system is PWR-1E cells. The experiment is described as follows: MTT cell proliferation assay, 7 d, PWR-1E. Type of experiment: cell-based. The note with it: Homo sapiens, 168 h, immortalized untransformed prostate cells, 7 d treatment.
Description: as §1, §2

The subject of experiment [10] is PC-3 cells. Put plainly: MTT cell proliferation assay, 7 d, PC-3. Type of experiment: cell-based. The note with it: Homo sapiens, PC-3, 168 h, 7 d treatment.
Description: as §1, §2

SMILES strings stand for the structures. Where two headings read alike, the source gives them in different places.

Take `CC1=C(/C=C/C(C)=C/C=C/C(C)=C/C(=O)Nc2ccccc2O)C(C)(C)CCC1n1ccnc1` (centres unmarked) [VNLG-147]: the GI50 (in general, the concentration giving 50% growth inhibition) in experiment [1] was 2040 nM; in experiment [2] it was 4260 nM; in [4] (read-out: GI50 LNCaP), 1860 nM; in experiment [4] (DHT induced, read-out: GI50 LNCaP, DHT induced), 1410 nM; in experiment [5], 1500 to 5500 nM; in experiment [6], 2660 nM. Also, the results for the GI50 in experiment [9] and in experiment [10] were 71500 nM and 2950 nM, respectively. For the same molecule, the “efficacy in inducing PARP cleavage and/or increasing Bax expression” value in [3] is on record as “greater efficacies”. The “percentage of cell invasion compared to control” value in experiment [7] is listed as 33. In experiment [8], the “PC-3 cell migration to the denuded zone” value is “potentially suppressed”.

The values above are taken from PMC4413647, “Simultaneous targeting of androgen receptor (AR) and MAPK-interacting kinases (MNKs) by novel retinamides inhibits growth of human prostate cancer cell lines” (Oncotarget, 2014).
